Results as given in article PMC10776879, “In vitro screening of topical formulation excipients for epithelial toxicity in cancerous and non-cancerous cell lines” (EXCLI Journal, 2023).
Converted amounts (≈) assume the structure as drawn. “Also recorded” adds a separate entry of the source.

What was measured:
[1] = Table 1, physicochemical information of the excipients, source not given; cited from earlier work
[2] = system: WM164 human melanoma cells; assay: MTT cell viability assay; assay type: cell-based; conditions: 24 h exposure
Protocol: (§1) Cells were seeded into the 96-well cell culture plates in 100 μl of complete culture medium at the initial density of 2x10^4 (cells/ml). Cells were incubated under 5 % CO2 at 37 °C for 24 hours for adhering to the wells and medium was then replaced with 100 μl of fresh medium containing excipient solution at the required final concentration. Each concentration was tested in minimum of 5 replicates and control cells were exposed to the culture medium only.
(§2) After cell incubation for 24 h, the excipient-containing medium was removed, and 100 μl of MTT in PBS (5 mg/ml) diluted 1:10 in medium was then added in the dark. Plates were further incubated for 2-3 h, after which time the medium was removed and the purple formazan product was dissolved by adding 200 μl of DMSO to each well. Plates were then placed in a shaker for 5 min at room temperature and the absorbance of the resulting solutions was measured at 570 nm using a microplate reader (Multiskan™ FC Microplate Photometer). The effect of each treatment was calculated as the percentage of tetrazolium salt reduction by viable cells against the negative control (cells treated with culture medium only).
(§3) To assess the excipients' cytotoxicity, the dose-response effect of each excipient was measured against the cell lines. The cytotoxicity value for each concentration of the excipients was expressed as percentage of viability against the untreated control wells (the optical density of untreated cells was set at 100 % viability) to construct dose-response curves.
(§4) All IC50 values were expressed as µg/ml. The percentage viability was calculated as follows: […]

[3] = system: HaCaT human keratinocytes; assay: MTT cell viability assay; assay type: cell-based; conditions: 24 h exposure
Protocol: as §1, §2, §3, §4

D24 human melanoma cells [4] = assay: MTT cell viability assay; assay type: cell-based; conditions: 24 h exposure
Protocol: as §1, §2, §3, §4

[5] = system: WM1366 human melanoma cells; assay: MTT cell viability assay; assay type: cell-based; conditions: 24 h exposure
Protocol: as §1, §2, §3, §4

[6] = system: WM164 human melanoma cells; assay: Trypan blue (TB) exclusion assay, membrane integrity; assay type: cell-based; conditions: 24 h exposure, read-out: IC50 (μg/ml) WM164, TB
Protocol: (§5) The dye exclusion test is routinely applied in laboratories to assess the number of live cells present in a cell suspension. […] In this assay a cell suspension is mixed with dye and then visualized to distinguish the cells that take up dye from the ones that exclude it. Viable cells will be seen as a clear cytoplasm whereas a dead cell will appear with a blue cytoplasm (Strober, 2001[86]). After cell incubation for 24 h, the excipient-containing medium was removed, and cells were trypsinized using trypsin-EDTA to obtain cell suspension. 20 µl of trypan blue dye was mixed thoroughly with 20 µl cell suspension by pipetting ups and downs and loaded into the cell counting slide. Cell numbers were detected by the automated cell counting machine. To find the total number of viable cells in one ml of aliquot, the number of viable cells was multiplied by 2 (the dilution factor for trypan blue). Viable cell percentage was calculated as follows: […]

[7] = system: primary skin fibroblasts (FB); assay: as above; assay type: cell-based; conditions: Homo sapiens, Skin fibroblast, 24 h exposure, read-out: IC50 (μg/ml) FB, TB
Protocol: as §5

[8] = system: HaCaT human keratinocytes; assay: as above; assay type: cell-based; conditions: 24 h exposure, read-out: IC50 (μg/ml) HaCaT, TB
Protocol: as §5

D24 human melanoma cells [9] = assay: as above; assay type: cell-based; conditions: 24 h exposure, read-out: IC50 (μg/ml) D24, TB
Protocol: as §5

[10] = system: WM1366 human melanoma cells; assay: as above; assay type: cell-based; conditions: 24 h exposure, read-out: IC50 (μg/ml) WM1366, TB
Protocol: as §5

[11] = system: primary skin fibroblasts (FB); assay: MTT cell viability assay; assay type: cell-based, human; conditions: 24 h exposure
Protocol: as §1, §2, §3, §4

[12] = system: primary skin fibroblasts (FB); assay: Reactive Oxygen Species evaluation with dihydrorhodamine 123; assay type: cell-based, human; conditions: greatest applied concentration, 24 h
Protocol: The oxidant-sensitive dye, dihydrorhodamine 123 (DHR), was used to detect intracellular ROS level. Cells were plated in the flat bottom 96-well plates to sub confluent (60-70 %) then the medium was removed and replaced with the pre-warmed treatment solutions (medium containing different concentration of the excipients). After 24 hours incubation with treatment solutions, medium was removed and replaced with the 100 μl of pre-warmed dying buffer (Hank's balanced salt solution (HBSS) containing 12 µM DHR dye). Cells were incubated for 30 minutes at 37 °C in a humidified 5 % CO2 atmosphere in dark. The cellular fluorescence generated by the DHR oxidation was measured at 485 nm (OD 485) using a microplate reader (Multiskan™ FC Microplate Photometer). […] Data points were recorded every 10 minutes for 60 minutes and exported for analysis by Excel software. The ROS level is calculated as the difference between (Ftest/ Fcontrol) and expressed as percentages of the control value using this formulation: […]
(§6) where Ftest and Fcontrol are the fluorescence intensities of the cells exposed to the treatments and the cells with only medium, respectively. Fluorescence intensity of the blank wells were measured at every measurement time points and recorded to compare with the control wells.

[13] = system: primary skin fibroblasts (FB); assay: Crystal violet (CV) cell viability assay; assay type: cell-based, human; conditions: 24 h exposure
Protocol: (§7) Cells were seeded into the 96-well cell culture plates in 100 μl of complete culture medium at the initial density of 2x10^4 (cells/ml). Cells were incubated under 5 % CO2 at 37 °C for 24 hours for adhering to the wells and medium was then replaced with 100 μl of fresh medium containing excipient solution at the required final concentration. Each concentration was tested in minimum of 5 replicates and control cells were exposed to the culture medium only. Fixed cells were stained with crystal violet dye solution to screen cell viability under treatment conditions. Cells are fixed by 4 % (v/v) paraformaldehyde in PBS for 10 minutes. Crystal violet assay of 0.05 % (v/v) is prepared by 1:4 dilution of the crystal violet stock solution (v/v) in 4 % (v/v) paraformaldehyde. The fixed cells were washed twice with PBS and covered with 250 µl crystal violet working solution. The plates were placed on a bench rocker with medium frequency (20 oscillations per minute) at room temperature for 20 minutes. The plates were emptied and washed under indirect stream of tap water for three times and inverted on filter paper. The plates were taped gently on the paper to remove any remaining liquid and air dried with no lid for minimum of 2 hr at room temperature. After the plates were photographed, blue dye was dissolved in DMSO and the optical density of each well was measured at 570 nm (OD570) with a plate reader (Multiskan™ FC Microplate Photometer). The effect of each treatment was calculated as the percentage of crystal viable staining of surviving attached cells, against the negative control (cells treated with culture medium only). To assess the excipients' cytotoxicity, the dose-response effect of each excipient was measured against the cell lines. The cytotoxicity value for each concentration of the excipients was expressed as percentage of viability against the untreated control wells (the optical density of untreated cells was set at 100 % viability) to construct dose-response curves. […] All IC50 values were expressed as µg/ml. The percentage viability was calculated as follows: […]

[14] = system: human cell lines (WM164, WM1366, D24, HaCaT, FB); assay: MTT and CV cytotoxicity, statements over all tested cell lines; assay type: cell-based; conditions: for Irritancy ranking: rank by MTT and CV IC50 over all cell lines, 1 = most cytotoxic
Protocol: as §1, §2
Fixed cells were stained with crystal violet dye solution to screen cell viability under treatment conditions. Cells are fixed by 4 % (v/v) paraformaldehyde in PBS for 10 minutes. Crystal violet assay of 0.05 % (v/v) is prepared by 1:4 dilution of the crystal violet stock solution (v/v) in 4 % (v/v) paraformaldehyde. The fixed cells were washed twice with PBS and covered with 250 µl crystal violet working solution. The plates were placed on a bench rocker with medium frequency (20 oscillations per minute) at room temperature for 20 minutes. The plates were emptied and washed under indirect stream of tap water for three times and inverted on filter paper. The plates were taped gently on the paper to remove any remaining liquid and air dried with no lid for minimum of 2 hr at room temperature. After the plates were photographed, blue dye was dissolved in DMSO and the optical density of each well was measured at 570 nm (OD570) with a plate reader (Multiskan™ FC Microplate Photometer). The effect of each treatment was calculated as the percentage of crystal viable staining of surviving attached cells, against the negative control (cells treated with culture medium only).
as §3
The cytotoxicity of the excipients was expressed in terms of an IC50 values (concentration causing 50 % death of the cell population) (Goldberg and Frazier, 1989[37]). […] All IC50 values were expressed as µg/ml. The percentage viability was calculated as follows: […]

[15] = system: WM164 human melanoma cells; assay: Crystal violet (CV) cell viability assay; assay type: cell-based; conditions: 24 h exposure
Protocol: as §7

[16] = system: HaCaT human keratinocytes; assay: Crystal violet (CV) cell viability assay; assay type: cell-based; conditions: 24 h exposure
Protocol: as §7

D24 human melanoma cells [17] = assay: Crystal violet (CV) cell viability assay; assay type: cell-based; conditions: 24 h exposure
Protocol: as §7

[18] = system: WM1366 human melanoma cells; assay: Crystal violet (CV) cell viability assay; assay type: cell-based; conditions: 24 h exposure
Protocol: as §7

[19] = system: human cervical cancer (HeLa) cells; parameters: method as in Ujhelyi et al., 2012[89], 2015[90]; conditions: HeLa cell line; ref Ujhelyi et al., 2012[89], 2015[90]; cited from earlier work
[20] = system: WM164 human melanoma cells; assay: Reactive Oxygen Species evaluation with dihydrorhodamine 123; assay type: cell-based; conditions: greatest applied concentration, 24 h
Protocol: (§8) The oxidant-sensitive dye, dihydrorhodamine 123 (DHR), was used to detect intracellular ROS level. Cells were plated in the flat bottom 96-well plates to sub confluent (60-70 %) then the medium was removed and replaced with the pre-warmed treatment solutions (medium containing different concentration of the excipients). After 24 hours incubation with treatment solutions, medium was removed and replaced with the 100 μl of pre-warmed dying buffer (Hank's balanced salt solution (HBSS) containing 12 µM DHR dye). Cells were incubated for 30 minutes at 37 °C in a humidified 5 % CO2 atmosphere in dark. The cellular fluorescence generated by the DHR oxidation was measured at 485 nm (OD 485) using a microplate reader (Multiskan™ FC Microplate Photometer). Hydrogen peroxide (H2O2) treatment (800, 400, 200, and 100 µM)/ (27, 13.5, 6.75, 3.4 µg/ml) was used as positive control and dying buffer with no cells as blank control. Data points were recorded every 10 minutes for 60 minutes and exported for analysis by Excel software. The ROS level is calculated as the difference between (Ftest/ Fcontrol) and expressed as percentages of the control value using this formulation: […]
as §6

[21] = system: HaCaT human keratinocytes; assay: as above; assay type: cell-based; conditions: greatest applied concentration, 24 h
Protocol: as §8, §6

D24 human melanoma cells [22] = assay: as above; assay type: cell-based; conditions: greatest applied concentration, 24 h
Protocol: as §8, §6

[23] = system: WM1366 human melanoma cells; assay: as above; assay type: cell-based; conditions: greatest applied concentration, 24 h
Protocol: as §8, §6

Molecule: CCOCCOCCO [Transcutol®, diethylene glycol monoethyl ether]
- HLB [1]: 4
- IC50 ([2]; Homo sapiens, read-out: IC50 (μg/ml) [Mean, Range] WM164, MTT): 2.12 µg/mL (≈ 15.8 µM)
- IC50 ([3]; Homo sapiens, read-out: IC50 (μg/ml) [Mean, Range] HaCaT, MTT): 3.32 µg/mL (≈ 24.7 µM)
- IC50 (D24 human melanoma cells [4]; Homo sapiens, read-out: IC50 (μg/ml) [Mean, Range] D24, MTT): 4.88 µg/mL (≈ 36.4 µM)
- IC50 ([5]; Homo sapiens, read-out: IC50 (μg/ml) [Mean, Range] WM1366, MTT): 3.49 µg/mL (≈ 26 µM)
- IC50 [6]: 14.6 µg/mL (≈ 108 µM)
- IC50 [7]: 7.08 µg/mL (≈ 52.8 µM)
- IC50 [8]: 6.57 µg/mL (≈ 49 µM)
- IC50 (D24 human melanoma cells [9]): 21.6 µg/mL (≈ 161 µM)
- IC50 [10]: 13.7 µg/mL (≈ 102 µM)
- IC50 ([11]; Homo sapiens, Skin fibroblast, read-out: IC50 (μg/ml) [Mean, Range] FB, MTT): 5.54 µg/mL (≈ 41.3 µM)
- ROS production increase vs untreated control [12]: 4.3%
- IC50 ([13]; Homo sapiens, Skin fibroblast, read-out: IC50 (μg/ml) [Mean, Range] FB, CV): 5.97 µg/mL (≈ 44.5 µM)
- IC50 ([14]; Homo sapiens, over the tested cell lines, this study, read-out: IC50): 2 to 5.5 µg/mL (≈ 14.9 to 41 µM)
- Irritancy ranking [14]: 4
- IC50 ([15]; Homo sapiens, read-out: IC50 (μg/ml) [Mean, Range] WM164, CV): 2.03 µg/mL (≈ 15.1 µM)
- IC50 ([16]; Homo sapiens, read-out: IC50 (μg/ml) [Mean, Range] HaCaT, CV): 2.91 µg/mL (≈ 21.7 µM)
- IC50 (D24 human melanoma cells [17]; Homo sapiens, read-out: IC50 (μg/ml) [Mean, Range] D24, CV): 5.01 µg/mL (≈ 37.3 µM)
- IC50 ([18]; Homo sapiens, read-out: IC50 (μg/ml) [Mean, Range] WM1366, CV): 3.55 µg/mL (≈ 26.5 µM)
- IC50, MTT endpoint [19]: 34 µg/mL (≈ 253 µM)
- ROS production increase vs untreated control [20]: 22.5%
- ROS production increase vs untreated control [21]: 29.4%
- ROS production increase vs untreated control (D24 human melanoma cells [22]): 24.9%
- ROS production increase vs untreated control [23]: 18.1%

Molecule: Propylene glycol dicaprylocaprate [Labrafac®]
- IC50 (μg/ml) [Mean, Range] WM164, MTT [2]: > Max Conc.
- IC50 (μg/ml) [Mean, Range] HaCaT, MTT [3]: > Max Conc.
- IC50 (μg/ml) [Mean, Range] D24, MTT (D24 human melanoma cells [4]): > Max Conc.
- IC50 (μg/ml) [Mean, Range] WM1366, MTT [5]: > Max Conc.
- IC50 (μg/ml) [Mean, Range] FB, MTT [11]: > Max Conc.
- IC50 (μg/ml) [Mean, Range] FB, CV [13]: > Max Conc.
- Cytotoxicity (result in words) ([14]; all cell lines, at the applied concentrations, 24 h): non-toxic; also recorded: did not induce any reduction in cell viability; also recorded: caused no toxicity to any cell lines; also recorded: No damaging effects on cell growth
- Irritancy ranking [14]: 5
- IC50 (μg/ml) [Mean, Range] WM164, CV [15]: > Max Conc.
- IC50 (μg/ml) [Mean, Range] HaCaT, CV [16]: > Max Conc.
- IC50 (μg/ml) [Mean, Range] D24, CV (D24 human melanoma cells [17]): > Max Conc.
- IC50 (μg/ml) [Mean, Range] WM1366, CV [18]: > Max Conc.
